Measured values: ChEMBL document CHEMBL1201862, “PubChem BioAssay data set” (2004)
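These data come from cells grown in 96-well plates and exposed to compound for 48 hours at five concentrations. At the GI50, growth is halved.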 The source made the active and inactive calls. Rule as the data show it: active = GI50 up to about 1.1 µM and inactive = higher.

Tests used:
Assay in all cases: inhibition of tumour cell growth, NCI panel, 48 h
786-0 = system: 786-0
BT-549 = system: BT-549
CAKI-1 = system: CAKI-1
EKVX = system: EKVX
HOP-62 = system: HOP-62
KM12 = system: KM12
MCF7 = system: MCF7
NCI-H226 = system: NCI-H226
OVCAR-5 = system: OVCAR-5
SF-295 = system: SF-295
SK-OV-3 = system: SK-OV-3
SN12C = system: SN12C
SNB-75 = system: SNB-75
SW-620 = system: SW-620
T47D = system: T47D
TK-10 = system: TK-10
U-251 = system: U-251
DLD-1 = system: DLD-1
HOP-18 = system: HOP-18
XF498 = system: XF498

Measured: GI50

NCCSCCc1ccccc1
inactive: 786-0 > 100 µM | BT-549 > 100 µM | CAKI-1 > 100 µM | EKVX > 100 µM | HOP-62 > 100 µM | KM12 > 100 µM | MCF7 > 100 µM | NCI-H226 > 100 µM | OVCAR-5 > 100 µM | SF-295 > 100 µM | SK-OV-3 > 100 µM | SN12C > 100 µM | SNB-75 > 100 µM | SW-620 > 100 µM | T47D 55.1 µM | TK-10 > 100 µM | U-251 > 100 µM

O=[N+]([O-])c1cc(Cc2cc([N+](=O)[O-])c3cccnc3c2O)c(O)c2ncccc12
inactive: 786-0 5.82 µM | BT-549 21.7 µM | CAKI-1 8.77 µM | EKVX 6.37 µM | HOP-62 9.1 µM | KM12 6.71 µM | MCF7 4.4 µM | NCI-H226 16.6 µM | OVCAR-5 24.8 µM | SF-295 6.15 µM | SK-OV-3 15.7 µM | SN12C 4.55 µM | SNB-75 7.18 µM | SW-620 5.94 µM | T47D 4.48 µM | TK-10 12.4 µM | U-251 3.91 µM

C[n+]1cn(CC(=O)c2ccccc2)c(C(N)=O)c1N
inactive: 786-0 43.7 µM | CAKI-1 > 100 µM | DLD-1 > 100 µM | EKVX > 100 µM | HOP-18 > 100 µM | HOP-62 > 100 µM | KM12 > 100 µM | NCI-H226 > 100 µM | OVCAR-5 > 100 µM | SF-295 > 100 µM | SK-OV-3 > 100 µM | SN12C > 100 µM | SNB-75 > 100 µM | SW-620 11 µM | TK-10 > 100 µM | U-251 94.6 µM

O/N=C1\C(=C\c2ccc3c(c2)OCCO3)CCCC1C(NO)c1ccc2c(c1)OCCO2 (stereo not given)
inactive: 786-0 32.1 µM | CAKI-1 32.4 µM | DLD-1 31.6 µM | EKVX 25.2 µM | HOP-18 43.4 µM | HOP-62 22 µM | KM12 21.4 µM | OVCAR-5 32.6 µM | SF-295 31 µM | SK-OV-3 49.9 µM | SN12C 14 µM | SNB-75 28.7 µM | SW-620 32.2 µM | TK-10 24.2 µM | U-251 19.3 µM

O=c1[nH]c(=O)n(C2CC(O)C(CO)O2)cc1C#Cc1c(F)c(F)c(F)c(F)c1F (stereo not given)
inactive: 786-0 > 100 µM | CAKI-1 > 100 µM | DLD-1 > 100 µM | EKVX > 100 µM | HOP-62 > 100 µM | KM12 > 100 µM | NCI-H226 > 100 µM | OVCAR-5 > 100 µM | SF-295 > 100 µM | SK-OV-3 > 100 µM | SN12C > 100 µM | SNB-75 > 100 µM | SW-620 > 100 µM | U-251 > 100 µM

COc1nc2c(OC)cccc2c(OC)c1C=O
inactive: 786-0 > 100 µM | EKVX > 100 µM | HOP-18 > 100 µM | HOP-62 22.1 µM | KM12 75.5 µM | NCI-H226 > 100 µM | SF-295 > 100 µM | SK-OV-3 > 100 µM | SN12C > 100 µM | SNB-75 30.8 µM | SW-620 96.4 µM | TK-10 > 100 µM | U-251 > 100 µM | XF498 18.8 µM

CN(C)C=C1C(Cl)=C(C=O)CC(C=O)=C1Cl
inactive: 786-0 11.8 µM | CAKI-1 11.3 µM | DLD-1 5.71 µM | EKVX 22.4 µM | HOP-18 13.3 µM | HOP-62 23.7 µM | KM12 6.46 µM | OVCAR-5 15.9 µM | SF-295 18.3 µM | SK-OV-3 29.4 µM | SN12C > 100 µM | SNB-75 15.4 µM | SW-620 1.56 µM | TK-10 16.7 µM | U-251 11.4 µM

COC(=O)/C(=N/O)C(C(=O)C=C(C)C)C(=O)C(=O)Nc1nc2ccc([N+](=O)[O-])cc2s1 (stereo not given)
inactive: 786-0 37.3 µM | CAKI-1 24.2 µM | EKVX 16.7 µM | HOP-62 32.9 µM | KM12 47.2 µM | NCI-H226 23.6 µM | OVCAR-5 37.7 µM | SF-295 36.8 µM | SK-OV-3 24.8 µM | SN12C 32.2 µM | SW-620 33.8 µM | TK-10 27.3 µM | U-251 49.5 µM | XF498 58.7 µM

COC12OCCN(C)C1=CC(=O)C1N=NCC12 (stereo not given)
inactive: 786-0 > 100 µM | CAKI-1 > 100 µM | DLD-1 > 100 µM | EKVX > 100 µM | HOP-18 > 100 µM | KM12 > 100 µM | NCI-H226 > 100 µM | SF-295 > 100 µM | SK-OV-3 > 100 µM | SN12C > 100 µM | SNB-75 > 100 µM | SW-620 > 100 µM | TK-10 > 100 µM | U-251 > 100 µM

O=C(C#Cc1ccccc1)N1c2ccccc2CC1c1c[nH]c2ccccc12 (stereo not given)
inactive: 786-0 16.2 µM | CAKI-1 11.4 µM | DLD-1 2.07 µM | EKVX 15.4 µM | HOP-62 8.95 µM | KM12 15.6 µM | NCI-H226 9.79 µM | OVCAR-5 24.8 µM | SF-295 15.5 µM | SK-OV-3 20.4 µM | SN12C 13 µM | SNB-75 11.7 µM | SW-620 15.3 µM | TK-10 21.4 µM | U-251 17.5 µM

COc1ccc2c3c([nH]c(=O)c2c1C(=O)O)-c1ccccc1CC3
inactive: 786-0 > 100 µM | CAKI-1 > 100 µM | DLD-1 > 100 µM | EKVX 49.7 µM | HOP-62 > 100 µM | KM12 > 100 µM | NCI-H226 65.8 µM | OVCAR-5 > 100 µM | SF-295 > 100 µM | SK-OV-3 > 100 µM | SN12C > 100 µM | SNB-75 > 100 µM | SW-620 > 100 µM | TK-10 > 100 µM | U-251 > 100 µM | XF498 > 100 µM

O=C1Nc2cccc3ncn(c23)C2=C1CCCC2
inactive: 786-0 > 100 µM | DLD-1 > 100 µM | EKVX > 100 µM | HOP-18 4.98 µM | KM12 > 100 µM | OVCAR-5 > 100 µM | SF-295 > 100 µM | SK-OV-3 96.2 µM | SN12C > 100 µM | SW-620 > 100 µM | TK-10 > 100 µM | U-251 > 100 µM

COc1ccc2c(c1)CCCC1C3=NCCC3(C)CSC21 (stereo not given)
inactive: 786-0 70.3 µM | HOP-18 80.4 µM | KM12 > 100 µM | SF-295 86.9 µM | SK-OV-3 > 100 µM | SN12C > 100 µM | SNB-75 67.8 µM | SW-620 > 100 µM | TK-10 70.8 µM | U-251 74.5 µM | XF498 > 100 µM

CC1=CC2C(C=C1)S(=O)(=O)N1CC21c1ccccc1 (stereo not given)
inactive: 786-0 > 100 µM | CAKI-1 44.2 µM | DLD-1 > 100 µM | HOP-18 54 µM | HOP-62 > 100 µM | KM12 > 100 µM | OVCAR-5 > 100 µM | SF-295 > 100 µM | SK-OV-3 > 100 µM | SN12C > 100 µM | SNB-75 > 100 µM | SW-620 > 100 µM | TK-10 > 100 µM | U-251 > 100 µM

NC(=O)c1cn(C2OC(CO)C(O)C2O)c2nc[n+]([O-])c(N)c12 (stereo not given)
active: 786-0 0.126 µM | BT-549 0.592 µM | CAKI-1 0.0497 µM | HOP-62 0.133 µM | KM12 0.153 µM | MCF7 0.2 µM | NCI-H226 0.211 µM | OVCAR-5 0.161 µM | SF-295 0.262 µM | SK-OV-3 0.0906 µM | SN12C 0.0912 µM | SNB-75 0.13 µM | SW-620 0.0409 µM | T47D 0.103 µM | TK-10 0.0324 µM | U-251 0.285 µM
inactive: EKVX 1.21 µM

CCC1(CN(C)C)CC/C(=C\c2ccc(OC)cc2)C1=O (stereo not given)
inactive: 786-0 > 100 µM | CAKI-1 > 100 µM | DLD-1 58.3 µM | EKVX > 100 µM | HOP-18 > 100 µM | HOP-62 > 100 µM | KM12 > 100 µM | NCI-H226 > 100 µM | OVCAR-5 > 100 µM | SF-295 > 100 µM | SN12C > 100 µM | SNB-75 > 100 µM | SW-620 > 100 µM | TK-10 > 100 µM | U-251 > 100 µM

C/N=C(\S)N/N=C/C(C)=N/N/C(S)=N/C
active: OVCAR-5 0.843 µM
inactive: 786-0 > 100 µM | EKVX > 100 µM | HOP-18 > 100 µM | HOP-62 > 100 µM | KM12 > 100 µM | SF-295 > 100 µM | SK-OV-3 > 100 µM | SN12C > 100 µM | SW-620 > 100 µM | TK-10 > 100 µM | U-251 > 100 µM

C1CSC(=[N+]2CC[N+](=C3SCCS3)CC2)S1
inactive: 786-0 > 100 µM | CAKI-1 > 100 µM | DLD-1 > 100 µM | EKVX > 100 µM | HOP-18 > 100 µM | HOP-62 > 100 µM | KM12 > 100 µM | OVCAR-5 > 100 µM | SF-295 > 100 µM | SK-OV-3 > 100 µM | SN12C > 100 µM | SNB-75 > 100 µM | SW-620 > 100 µM | TK-10 > 100 µM | U-251 > 100 µM

CN(C)c1ccc2cc3ccc(N(C)C)cc3nc2c1 [ACRIDINE ORANGE]
active: 786-0 0.638 µM | KM12 0.488 µM | MCF7 0.714 µM | SN12C 0.962 µM | SW-620 0.49 µM
inactive: BT-549 6.78 µM | CAKI-1 1.79 µM | EKVX 1.87 µM | HOP-62 2.02 µM | NCI-H226 5.09 µM | OVCAR-5 2.75 µM | SF-295 2.08 µM | SK-OV-3 5.85 µM | SNB-75 2.1 µM | T47D 12.1 µM | TK-10 2.86 µM | U-251 1.24 µM
